# Assay results: patent US12466875B2, “Supramolecular high affinity protein-binding system for purification of biomacromolecules” (THE JOHNS HOPKINS UNIVERSITY, priority 2017, dated 2025)
# Entries after “also recorded” stand apart in the source; their conditions may differ.
# Test system: FITC-IgG
# Assay: Confocal fluorescence imaging with FITC-IgG
# Assay type: binding
# Conditions: 2 μM FITC-IgG in PBS pH 7.4
# Excerpt: FIGS. 10A-C. […] (A) Image of Rhodamine B fluorescence. (B) Image of FITC fluorescence and (C) merged image of (A) and (B). Scale bar: 20 μm.
# To better visualize the interactions between C12-Z33 immunofibers and IgG, labelling the C12-Z33 with the fluorescent dye (Rhodamine B) allows for direct imaging of fluorescent immunofibers and FITC-IgG under a confocal laser scanning microscope. Rhodamine B has been extensively used for staining biomaterials. […] The self-assembled fibrous morphology in PBS was confirmed using TEM (FIG. 9C). 100 μM RB-C12-Z33 diluted from a 1 mM stock solution and 2 μM FITC-IgG were premixed in PBS. 30 μl solution was spotted on a clean microscope slide right before imaging and covered by a coverslip to obtain a thin layer of liquid.
substance,measurement,value
"RB-C12-Z33: Rhodamine B labelled C12-Z33; lysine added at N-terminal of Z33, Rhodamine B and C12 conjugated to its amine groups",fluorescence of FITC-IgG after incubation (confocal),co-localization of the fluorescence signal; also recorded: co-localization of fluorescence signals
